≈ marks a conversion by molar mass, not a printed value. Read-outs that look alike come from different tables or passages of the source. Each block holds one compound with its values, some of them ahead of it.
Legend:
[1] = Dynamic vapor sorption (hygroscopicity); format: physicochemical; details: for DVS wt gain: @ 95% RH, Compound 1 HCl salt forms; for hygroscopicity (in words): DVS; for DVS water uptake: up to 90% RH, Compound 1 citrate salt polymorphs; for water uptake: between 0 and 90% RH
Protocol: Dynamic vapor sorption (DVS) was measured using DVS advantage (Surface Measurement Systems Ltd). The samples were tested under isotherm (25° C.) at a targeted RH of 0 to 95% full cycle in step mode. For an isotherm test, the chamber temperature was maintained by a water bath at constant 25.0±1.0° C. The relative humidity in the sample chamber was generated by combining different flows of wet and dry nitrogen with variable flow rates. The analysis was performed in 10% RH increments. Sampling rate was 1 sec save data rate is 20 sec. The dm/dt (%) value was set at 0.001 with a dm/dt window of 5 min., a minimum stability duration time of 10 min, and a maximum stage time of 180 min. The sample's equilibrium weight corresponding to each RH was recorded. A sorption isotherm was obtained by plotting equilibrium moisture content versus RH.
Hygroscopicity was determined on a Surface Measurement Systems DVS. A sample size of 5-20 mg was loaded into the DVS instrument sample pan and the sample was analyzed on a DVS automated sorption analyzer at room temperature. The relative humidity was increased from 0% to 90% RH at 10% RH step, then decreased in a similar manner to accomplish a full adsorption/desorption cycle.

[2] = Solid state stability of salt forms and free base; format: physicochemical
[3] = Solubility in biorelevant media (FeSSIF, FaSSIF, FaSSGF, FeSSGF)
[4] = Solubility of salt forms and free base in water, SGF, SIF and 0.5% HPMC in […] Tween 80
[5] = Form conversion / form transfer experiments (humidity, drying, competitive slurries); format: physicochemical
From the text: The thermodynamic relationship between the two forms was explored through form conversion experiments (Table 31).

[6] = Stability of free base in solution and in solid state under stress conditions; format: physicochemical
physchem [7] = details: simulated gastric fluid, thermodynamic from solid
physchem [8] = details: FaSSGF, fassgf or other biorelevant
[9] = tested on: TEAD reporter (8×GTIIC-luciferase) in W138 VA13 cells; test: TEAD reporter assay; format: cell-based; details: 24 or 72 hours
Protocol: TEAD reporter activity was analyzed using W138 VA13 cells stably expressing a YAP/TAZ responsive synthetic promoter driving luciferase expression (8×GTIIC-luciferase). 10,000 cells per well were seeded on a white-walled 96-well plate and left overnight. After 16-20 hours, cells were treated with compound and TEAD reporter activity was measured 24 or 72 hours later using Bright Glo luciferase assay (Promega) according to the manufacturer's instructions. This assay was performed 3 times for Compound 1 and twice for Trametinib.

[10] = Approximate solubility in various solvents at room temperature; format: physicochemical
Protocol: (§1) The resulting mixture was agitated for about 1 day at room temperature. If all of the solids appeared to be dissolved by visual inspection, the estimated solubility was calculated based on the total volume of solvent used to give a complete solution. If solids were present, a known volume of filtrate was evaporated to dryness and the weight of the residue was measured to estimate the solubility.
as §1, with “for” for “for about”

[11] = Compression test (2000-psi pressure); format: physicochemical; details: 2000-psi pressure for about 1 minute
[12] = Approximate solubility of HCl salt starting material in selected organic solvents; format: physicochemical; details: room temperature
Protocol: Solubility of the starting mater in selected organic solvents was determined by mixing with selected solvents at room temperature.

Compound: CC1(C(N)=O)CCC(n2c(Nc3c(Cl)cc(Cl)cc3Cl)nc3cnc(NC4CCOCC4F)nc32)CC1.Cl (centres unmarked) [starting material HCl Salt Form]
DVS wt gain [1]: ~3.6% wt | hygroscopicity (in words) [1]: moderately hygroscopic | mass change ([1]; from 0% RH to 95% RH at 25° C.): 3.6 wt %

Compound: CC1(C(N)=O)CCC(n2c(Nc3c(Cl)cc(Cl)cc3Cl)nc3cnc(NC4CCOCC4F)nc32)CC1.O=C(O)CC(O)(CC(=O)O)C(=O)O (centres unmarked) [Y + Z]
Resulting Form(s) ([5]; Slurry in EtOAc, RT, 5 days): Y + Z | Resulting Form(s) ([5]; Slurry in EtOAc, RT, 10 days): Y + Z | Resulting Form(s) ([5]; Slurry in Toluene, 50° C., 4 days): Z + Y | Resulting Form(s) ([5]; Slurry in Toluene, RT, 5 days): Z + Y | Resulting Form(s) ([5]; Slurry in Toluene, RT, 10 days): Z + Y

Compound: C[C@]1(C(N)=O)CC[C@@H](n2c(Nc3c(Cl)cc(Cl)cc3Cl)nc3cnc(N[C@@H]4CCOC[C@H]4F)nc32)CC1 [Free Base]
solid state stability (in words) [2]: chemically and physically stable in solid state | Physical (40° C./75% RH) ([2]; 40° C./75% RH): Stable | Chemical (60° C.) RRT2.2 [2]: <0.03% | Physical (60° C.) [2]: Dehydration (−), | hygroscopicity (in words) ([1]; listed as monohydrate free base): slightly hygroscopicity | temperature above which crystal form of monohydrate changes [6]: > 60 °C | stability in solution ([6]; pH 1.2 to 7.5, 40° C.): stable | chemical and physical stability in solid state under stress conditions ([6]; solid state, stress conditions): up to seven weeks | Conc. at 24 Hrs: 0.003 mg/mL | Conc. at 24 Hrs (pH 4.23): 0.178 mg/mL | solubility thermodynamic at 24 h (physchem [7]): 3480 µg/mL (≈ 6.1 mM) | solubility (physchem [8]): 3850 µg/mL (≈ 6.74 mM) | pH ([3]; FaSSGF): 2.77 | pH ([3]; FaSSIF): 6.37 | pH ([3]; FeSSGF): 6.23 | pH ([3]; FeSSIF): 4.95 | pH at final ([4]; 0.5% HPMC/[…] Tween80): 4.23 | pH at final ([4]; SGF): 1.93 | pH at final ([4]; SIF): 7.33 | pH at final ([4]; Water): 8.11

Compound: CC(=O)Nc1cccc(-n2c(=O)n(C3CC3)c(=O)c3c(Nc4ccc(I)cc4F)n(C)c(=O)c(C)c32)c1 [Trametinib, reference compound]
inhibition of TEAD reporter activity [9]: did not inhibit

Compound: C[C@]1(C(N)=O)CC[C@@H](n2c(Nc3c(Cl)cc(Cl)cc3Cl)nc3cnc(N[C@@H]4CCOC[C@H]4F)nc32)CC1 [amorphous]
reversible weight change ([1]; between 10 and 50% RH): about 3.5% | DVS water uptake up to 90 % RH [1]: 6.9 wt % water

Compound: C[C@]1(C(N)=O)CC[C@@H](n2c(Nc3c(Cl)cc(Cl)cc3Cl)nc3cnc(N[C@@H]4CCOC[C@H]4F)nc32)CC1 [Form A]
solubility at 1 day ([10]; 1,4-dioxane, organic solvent or mixture, thermodynamic from solid, 1,4-dioxane): > 50 mg/mL | solubility at 1 day ([10]; 2-MeTHF, organic solvent or mixture, thermodynamic from solid): > 50 mg/mL | solubility at 1 day ([10]; DCM, organic solvent or mixture, thermodynamic from solid): > 50 mg/mL | solubility at 1 day ([10]; EtOAc, organic solvent or mixture, thermodynamic from solid): > 100 mg/mL | solubility at 1 day ([10]; EtOH, organic solvent or mixture, thermodynamic from solid): > 20 mg/mL | solubility at 1 day ([10]; EtOH/water (1:1), aqueous with cosolvent or surfactant or cyclodextrin, thermodynamic from solid, EtOH/water (1:1)): > 3 mg/mL | solubility at 1 day ([10]; IPA, organic solvent or mixture, thermodynamic from solid): > 10 mg/mL | solubility at 1 day ([10]; IPAc, organic solvent or mixture, thermodynamic from solid): > 50 mg/mL | solubility at 1 day ([10]; MEK, organic solvent or mixture, thermodynamic from solid): > 50 mg/mL | solubility at 1 day ([10]; MIBK, organic solvent or mixture, thermodynamic from solid): > 50 mg/mL | solubility at 1 day ([10]; MTBE, organic solvent or mixture, thermodynamic from solid): > 20 mg/mL | solubility at 1 day ([10]; MeCN, organic solvent or mixture, thermodynamic from solid): > 3 mg/mL | solubility at 1 day ([10]; MeCN/water (1:1), aqueous with cosolvent or surfactant or cyclodextrin, thermodynamic from solid, MeCN/water (1:1)): > 50 mg/mL | solubility at 1 day ([10]; MeOAc, organic solvent or mixture, thermodynamic from solid): > 100 mg/mL | solubility at 1 day ([10]; MeOH, organic solvent or mixture, thermodynamic from solid): > 50 mg/mL | solubility at 1 day ([10]; THF, organic solvent or mixture, thermodynamic from solid): > 100 mg/mL | solubility at 1 day ([10]; THF/water (1:1), aqueous with cosolvent or surfactant or cyclodextrin, thermodynamic from solid, THF/water (1:1)): > 50 mg/mL | solubility at 1 day ([10]; acetone, organic solvent or mixture, thermodynamic from solid): > 100 mg/mL | solubility at 1 day ([10]; heptane, organic solvent or mixture, thermodynamic from solid): < 1 mg/mL | solubility at 1 day ([10]; n-BuOH, organic solvent or mixture, thermodynamic from solid): > 20 mg/mL | solubility at 1 day ([10]; toluene, organic solvent or mixture, thermodynamic from solid): > 10 mg/mL | solubility at 1 day ([10]; water, thermodynamic from solid): < 1 mg/mL | weight change ([1]; between 10 and 30% RH): over 3% | additional water uptake ([1]; between 30-90% RH): approximately 1.4 wt % | DVS water uptake up to 90 % RH ([1]; listed as A): 4.7 wt % water | Resulting Form ([5]; no solvent, RT and 0% RH 6 days): B + A

Compound: CC1(C(N)=O)CCC(n2c(Nc3c(Cl)cc(Cl)cc3Cl)nc3cnc(NC4CCOCC4F)nc32)CC1.O=C(O)CC(O)(CC(=O)O)C(=O)O (centres unmarked) [Form Y]
hygroscopicity (in words) [1]: slightly hygroscopic | water uptake [1]: about 2.1 % w/w | solid form after compression [11]: still Form Y

Compound: Citrate
hygroscopicity (in words) [1]: low hygroscopicity

Continued, in another order:

Chemical (40° C./75% RH) RRT = 2.2 ([2]; 40° C./75% RH): 0.02% | Physical (40° C./75% RH) ([2]; 40° C./75% RH): Stable | Chemical (60° C.) RRT2.2 [2]: 0.05% | Physical (60° C.) [2]: Stable | hygroscopicity with respect to monohydrate ([1]; 0-95% RH): < 1.0% | hygroscopicity (in words) [1]: low hygroscopicity | remaining water released ([1]; from 5% RH to dry): ~2.8 % wt | additional moisture sorption ([1]; from 25 to 95% RH): ~1.7% | loss of water content during desorption cycle ([1]; from 95 down to 5% RH): ~1.5% | pH ([3]; FaSSGF): 1.82 | pH ([3]; FaSSIF): 6.12 | pH ([3]; FeSSGF): 5.66 | pH ([3]; FeSSIF): 4.85 | pH at final ([4]; 0.5% HPMC/[…] Tween80): 3.06 | pH at final ([4]; SGF): 1.17 | pH at final ([4]; SIF): 7.22 | pH at final ([4]; Water): 3.65
Compound: CC1(C(N)=O)CCC(n2c(Nc3c(Cl)cc(Cl)cc3Cl)nc3cnc(NC4CCOCC4F)nc32)CC1.Cl.O (centres unmarked) [HCl Salt]
solid state stability (in words) [2]: chemically and physically stable in solid state

DVS wt gain [1]: ~2% wt
Compound: CC1(C(N)=O)CCC(n2c(Nc3c(Cl)cc(Cl)cc3Cl)nc3cnc(NC4CCOCC4F)nc32)CC1.Cl.O (centres unmarked) [Form 8]

DVS water uptake [1]: ~2.1 wt % water
Compound: CC1(C(N)=O)CCC(n2c(Nc3c(Cl)cc(Cl)cc3Cl)nc3cnc(NC4CCOCC4F)nc32)CC1.O=C(O)CC(O)(CC(=O)O)C(=O)O (centres unmarked) [Y]

Approximate Solubility ([12]; 2-MeTHF): S < 0.9 mg/mL | Approximate Solubility ([12]; DCM): S < 1.6 mg/mL | Approximate Solubility ([12]; DMAc): S > 18 mg/mL | Approximate Solubility ([12]; DMSO): S > 22 mg/mL | Approximate Solubility ([12]; EtOAc): S < 1.5 mg/mL | Approximate Solubility ([12]; EtOH): S > 28 mg/mL | Approximate Solubility ([12]; H2O): S < 1.0 mg/mL | Approximate Solubility ([12]; Heptane): S < 1.7 mg/mL | Approximate Solubility ([12]; IPAc): S < 1.3 mg/mL | Approximate Solubility ([12]; MIBK): S < 1.5 mg/mL | Approximate Solubility ([12]; MTBE): S < 1.0 mg/mL | Approximate Solubility ([12]; MeOAc): S < 0.9 mg/mL | Approximate Solubility ([12]; MeOH): S > 31 mg/mL | Approximate Solubility ([12]; NMP): S > 24 mg/mL | Approximate Solubility ([12]; Toluene): S < 1.4 mg/mL
Compound: CC1(C(N)=O)CCC(n2c(Nc3c(Cl)cc(Cl)cc3Cl)nc3cnc(NC4CCOCC4F)nc32)CC1.Cl (centres unmarked) [anhydrate/amorphous starting material]

hygroscopicity (in words) [1]: slightly hygroscopic | water uptake [1]: about 1.6 % w/w | solid form after compression [11]: still Form Z
Compound: CC1(C(N)=O)CCC(n2c(Nc3c(Cl)cc(Cl)cc3Cl)nc3cnc(NC4CCOCC4F)nc32)CC1.O=C(O)CC(O)(CC(=O)O)C(=O)O (centres unmarked) [Form Z]

DVS wt gain [1]: ~4.5% wt
Compound: CC1(C(N)=O)CCC(n2c(Nc3c(Cl)cc(Cl)cc3Cl)nc3cnc(NC4CCOCC4F)nc32)CC1.Cl.O (centres unmarked) [Form 7]

DVS water uptake [1]: ~1.6 wt % water
Compound: CC1(C(N)=O)CCC(n2c(Nc3c(Cl)cc(Cl)cc3Cl)nc3cnc(NC4CCOCC4F)nc32)CC1.O=C(O)CC(O)(CC(=O)O)C(=O)O (centres unmarked) [Z]
